Measured values from patent publication US20240381868A1, “AGED AQUEOUS ANTIMICROBIAL COMPOSITION” (EVONIK CORPORATION, priority 2021, published 2024).

What was measured:
[1] = Formation and stability of other peracids at room temperature (titration); type: physicochemical
Method: (§1) The concentrations of formed peracids and hydrogen peroxide were monitored by titration on an auto-titrator and by using Chemetrics test kits K7913F and K-5543.
Various other peracids were also prepared using corresponding organic acid precursors and hydrogen peroxide as described in the Example 1. Only the acids with low or no odor were used in the experiment. The solutions were kept at room temperature and periodically tested for the concentration of the components using an auto-titrator and standard titration methods.

[2] = Formation and stability of peroxycitric acid solutions at room temperature (titration); type: physicochemical; settings: H2SO4 catalyst
Method: as §1
Two solutions were prepared using solid citric acid (47.9 wt %), 70 wt % hydrogen peroxide (21.8 wt %) and the rest DI water. 0.6 wt % Dequest 2010 stabilizer was added to both solutions. To the first solution (PCA-1), 4.9 wt % concentrated sulfuric acid was added as a catalyst. To the second solution (PCA-2), 0.6 wt % of sulfuric acid was added. Both solutions were kept at room temperature and periodically tested for the concentration of the components using an auto-titrator and standard titration methods.

Molecule	concentration of peracid formed [1]	Peracid Concentration ([1]; 3 days)	Peracid Concentration ([1]; 7 days)	Peracid Concentration ([1]; 14 days)	max peracid concentration formed [1]	time for which peracid was stable [1]	Peracid Concentration ([1]; 1 day)	Peracid Concentration ([1]; 22 days)	Peracid Concentration ([1]; 78 days)	time to reach maximum concentration of PCA [2]
O=C(O)C(=O)OO [Peroxyoxalic, peroxalic acid]	< 1.0 wt %	0.047 mol/kg	0.066 mol/kg	0.057 mol/kg						
O=C(O)/C=C\C(=O)OO [Peroxymaleic, Permaleic acid]			0.386 mol/kg	0.379 mol/kg	5.1 wt %	at least 78 days	0.235 mol/kg	0.348 mol/kg	0.318 mol/kg	
Percitric acid [PCA]										3 to 7 days
O=C(O)CCCC(=O)OO [Peroxyglutaric, perglutaric acid]		1.189 mol/kg	1.081 mol/kg	0.986 mol/kg			0.993 mol/kg	0.919 mol/kg		
O=C(O)CC(=O)OO [Peroxymalonic, permalonic acid]		0.442 mol/kg	0.200 mol/kg	0.083 mol/kg						
